Data on eight molecules can be found in ChEMBL document CHEMBL1201862, “PubChem BioAssay data set” (2004).

Activity calls are given as the source filed them. Cut-off read from the data, not from the text of the source, for most assays here: actives have a measured IC50 and inactives only a lower limit.

The target in experiment [1] is T1, Sentrin-specific protease 6 (Homo sapiens, UniProt Q9GZR1).
T1 sequence (Q9GZR1 whole entry): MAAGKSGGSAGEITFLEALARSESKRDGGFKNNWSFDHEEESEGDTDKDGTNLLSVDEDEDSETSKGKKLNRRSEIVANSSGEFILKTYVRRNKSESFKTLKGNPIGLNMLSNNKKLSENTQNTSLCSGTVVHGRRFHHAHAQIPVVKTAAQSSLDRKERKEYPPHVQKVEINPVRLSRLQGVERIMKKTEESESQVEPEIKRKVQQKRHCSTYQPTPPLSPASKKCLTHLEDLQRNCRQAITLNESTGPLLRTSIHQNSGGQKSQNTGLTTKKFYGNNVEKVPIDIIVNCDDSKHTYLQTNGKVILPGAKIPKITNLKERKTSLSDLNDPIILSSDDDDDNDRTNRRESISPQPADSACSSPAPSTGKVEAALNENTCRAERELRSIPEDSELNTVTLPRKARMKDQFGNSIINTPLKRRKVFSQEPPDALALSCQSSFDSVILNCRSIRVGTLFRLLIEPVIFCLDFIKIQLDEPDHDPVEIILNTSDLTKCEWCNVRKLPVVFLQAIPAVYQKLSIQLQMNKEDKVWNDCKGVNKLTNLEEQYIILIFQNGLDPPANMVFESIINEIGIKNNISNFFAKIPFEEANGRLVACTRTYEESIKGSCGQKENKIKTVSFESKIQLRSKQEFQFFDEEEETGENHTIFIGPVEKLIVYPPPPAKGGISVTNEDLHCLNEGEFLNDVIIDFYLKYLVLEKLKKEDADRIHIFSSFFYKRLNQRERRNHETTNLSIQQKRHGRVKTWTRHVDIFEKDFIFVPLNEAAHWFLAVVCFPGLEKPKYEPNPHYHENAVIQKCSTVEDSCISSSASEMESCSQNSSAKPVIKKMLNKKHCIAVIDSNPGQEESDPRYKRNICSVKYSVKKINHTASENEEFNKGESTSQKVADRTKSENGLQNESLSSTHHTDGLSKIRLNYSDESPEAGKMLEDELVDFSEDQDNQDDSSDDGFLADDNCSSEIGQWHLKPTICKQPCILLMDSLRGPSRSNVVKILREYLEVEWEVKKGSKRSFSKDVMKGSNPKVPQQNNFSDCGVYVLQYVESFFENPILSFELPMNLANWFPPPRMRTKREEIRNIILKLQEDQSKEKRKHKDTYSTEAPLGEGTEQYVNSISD
As to the kind of experiment: SENP6 protease inhibitors, SAR follow-up, biochemical, luminescence, set 2 (AID 588598). It is filed as functional.

Experiment [2] addresses T2, Sentrin-specific protease 7 (Homo sapiens, UniProt Q9BQF6).
T2 sequence (Q9BQF6 whole entry): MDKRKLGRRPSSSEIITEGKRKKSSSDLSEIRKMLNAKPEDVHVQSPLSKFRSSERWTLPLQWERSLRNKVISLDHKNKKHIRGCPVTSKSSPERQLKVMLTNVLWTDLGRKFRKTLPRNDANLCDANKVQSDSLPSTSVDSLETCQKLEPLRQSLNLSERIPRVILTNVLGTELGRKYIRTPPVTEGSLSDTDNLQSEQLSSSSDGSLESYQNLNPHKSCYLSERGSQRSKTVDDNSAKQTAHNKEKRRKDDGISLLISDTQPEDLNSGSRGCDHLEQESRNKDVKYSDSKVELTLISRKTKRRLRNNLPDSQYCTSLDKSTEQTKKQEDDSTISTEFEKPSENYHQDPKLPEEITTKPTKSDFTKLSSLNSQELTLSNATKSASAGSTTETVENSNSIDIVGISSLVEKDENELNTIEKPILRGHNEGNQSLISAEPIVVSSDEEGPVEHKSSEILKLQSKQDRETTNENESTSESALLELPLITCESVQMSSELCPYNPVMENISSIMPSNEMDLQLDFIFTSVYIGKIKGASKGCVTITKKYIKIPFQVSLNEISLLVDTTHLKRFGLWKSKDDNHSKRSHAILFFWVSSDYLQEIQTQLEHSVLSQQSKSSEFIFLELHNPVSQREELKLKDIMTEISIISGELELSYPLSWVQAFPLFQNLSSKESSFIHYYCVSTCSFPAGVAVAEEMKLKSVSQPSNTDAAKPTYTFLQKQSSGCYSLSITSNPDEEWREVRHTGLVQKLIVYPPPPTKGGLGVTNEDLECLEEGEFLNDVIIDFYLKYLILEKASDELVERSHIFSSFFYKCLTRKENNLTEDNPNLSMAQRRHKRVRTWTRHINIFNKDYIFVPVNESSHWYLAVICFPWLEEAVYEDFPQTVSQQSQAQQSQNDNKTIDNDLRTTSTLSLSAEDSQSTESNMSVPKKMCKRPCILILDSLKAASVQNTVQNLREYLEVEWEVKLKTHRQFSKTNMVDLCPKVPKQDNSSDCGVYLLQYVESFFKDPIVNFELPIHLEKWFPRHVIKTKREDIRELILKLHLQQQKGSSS
In words: SENP7 protease inhibitors, SAR follow-up, biochemical, luminescence, set 2 (AID 588600). It is filed as functional.

Experiment [3] has as its target T3, Caspase-3 (Homo sapiens, UniProt P42574).
T3 sequence (P42574 whole entry): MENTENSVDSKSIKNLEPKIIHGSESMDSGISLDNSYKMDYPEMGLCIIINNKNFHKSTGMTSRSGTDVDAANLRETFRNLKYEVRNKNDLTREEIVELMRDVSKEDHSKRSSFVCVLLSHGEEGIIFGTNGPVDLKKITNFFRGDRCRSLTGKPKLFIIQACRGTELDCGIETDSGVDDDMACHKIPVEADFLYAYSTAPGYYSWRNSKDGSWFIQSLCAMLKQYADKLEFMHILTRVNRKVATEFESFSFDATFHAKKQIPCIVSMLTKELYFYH
In words: caspase-3 inhibitors as off-family protease, SAR follow-up, selectivity assay for SENP protease inhibitor project, biochemical, luminescence, set 2 (AID 588599). It is filed as functional.

For experiment [4], the target named is T4, Sentrin-specific protease 8 (Homo sapiens, UniProt Q96LD8).
T4 sequence (Q96LD8 whole entry): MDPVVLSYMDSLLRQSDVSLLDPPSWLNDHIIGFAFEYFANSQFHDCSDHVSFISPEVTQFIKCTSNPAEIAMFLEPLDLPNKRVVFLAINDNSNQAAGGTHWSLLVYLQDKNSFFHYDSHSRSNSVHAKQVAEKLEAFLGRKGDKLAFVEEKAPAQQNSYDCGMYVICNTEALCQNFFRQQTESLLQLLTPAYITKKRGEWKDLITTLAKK
In words: SENP8 protease inhibitors, SAR follow-up, biochemical, luminescence, set 2 (AID 588601). Type of experiment: functional.

The target in experiment [5] is T5, Phospholipase D1 (Homo sapiens, UniProt Q13393).
T5 sequence (Q13393 whole entry): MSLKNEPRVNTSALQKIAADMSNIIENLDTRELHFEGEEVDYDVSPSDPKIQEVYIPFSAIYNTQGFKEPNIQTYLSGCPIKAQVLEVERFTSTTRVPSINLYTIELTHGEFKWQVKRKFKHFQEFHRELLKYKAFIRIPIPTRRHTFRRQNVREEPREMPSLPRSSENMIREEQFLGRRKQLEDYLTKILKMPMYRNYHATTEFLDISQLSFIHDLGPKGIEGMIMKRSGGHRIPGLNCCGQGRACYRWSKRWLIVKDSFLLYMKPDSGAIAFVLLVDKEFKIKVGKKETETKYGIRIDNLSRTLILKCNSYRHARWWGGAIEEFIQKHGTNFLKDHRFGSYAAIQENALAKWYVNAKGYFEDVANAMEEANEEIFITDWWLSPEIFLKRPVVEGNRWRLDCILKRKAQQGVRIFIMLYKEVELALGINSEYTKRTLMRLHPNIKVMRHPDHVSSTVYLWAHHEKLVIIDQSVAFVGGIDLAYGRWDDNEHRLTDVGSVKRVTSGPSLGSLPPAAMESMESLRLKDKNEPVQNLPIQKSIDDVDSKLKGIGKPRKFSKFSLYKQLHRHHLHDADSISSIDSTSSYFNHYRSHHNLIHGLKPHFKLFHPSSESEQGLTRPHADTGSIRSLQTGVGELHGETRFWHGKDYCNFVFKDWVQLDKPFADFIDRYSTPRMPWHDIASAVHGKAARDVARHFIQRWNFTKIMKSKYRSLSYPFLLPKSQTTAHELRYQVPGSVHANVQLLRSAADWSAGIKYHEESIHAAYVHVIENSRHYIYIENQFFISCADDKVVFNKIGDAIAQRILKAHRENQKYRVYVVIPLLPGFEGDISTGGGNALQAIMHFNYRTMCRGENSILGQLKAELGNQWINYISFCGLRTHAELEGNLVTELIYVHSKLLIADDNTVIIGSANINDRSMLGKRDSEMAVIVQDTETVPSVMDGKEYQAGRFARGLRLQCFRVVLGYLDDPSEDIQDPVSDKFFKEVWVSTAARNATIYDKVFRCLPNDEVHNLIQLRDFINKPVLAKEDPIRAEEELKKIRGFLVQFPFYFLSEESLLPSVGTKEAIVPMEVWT
In words: PLD1 inhibitor potency in cells, dose response (AID 602151).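 Note: cellular PLD1 assay in Calu-1 cells stimulated with PMA.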 Type of experiment: functional.

Experiment [6] concerns the target Phospholipase D2 (Homo sapiens, UniProt O14939). In words: PLD2 inhibitor potency in cells, dose response (AID 602147).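 Note: cellular assay in HEK293 cells overexpressing GFP-tagged PLD2.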 It is filed as functional.
For experiment [7], the target named is T1, Sentrin-specific protease 6. In words: SAR Analysis of small molecule inhibitors of Sentrin-specific protease 6 (SENP6) using a Luminescent assay. [Related pubchem assays (depositor defined):AID2582, AID2599]. It is filed as functional.
For experiment [8], the target named is T3, Caspase-3. As to the kind of experiment: SAR Analysis of small molecule inhibitors of Sentrin-specific proteases (SENPs) using a Caspase-3 Selectivity assay. [Related pubchem assays (depositor defined):AID2540, AID2599, AID434973, AID489001]. It is filed as functional.
Experiment [9] concerns the target T4, Sentrin-specific protease 8. As to the kind of experiment: SENP8 protease inhibitors, SAR follow-up, biochemical, luminescence (AID 504501). It is filed as functional.
Experiment [10] deals with T2, Sentrin-specific protease 7. In words: SENP7 protease inhibitors, SAR follow-up, biochemical, luminescence (AID 504497). It is filed as functional.
The nature of experiment [11]: inhibitors of intracellular T. cruzi replication, confirmation, NIH3T3 host cells, beta-gal luminescence (AID 2044).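 Note: intracellular parasites grown in NIH/3T3 mouse fibroblasts as host cells; luminescent beta-galactosidase reporter signal from transgenic T. cruzi replicating inside host cells; inhibitors lower the luminescence signal.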 Type of experiment: functional, cell-based.
Experiment [12] is described as follows: cells.
Experiment [13] in a line: cytotoxicity toward NIH3T3 fibroblasts, dose response, counter-screen, cell-based, ATP luminescence, mouse fibroblasts (AID 2010).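 Note: cells exposed to compound for about 90 hours before reading.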 It is filed as functional. (Counterscreens check selectivity or assay interference.)
For experiment [14], the target named is T6, High affinity choline transporter 1 (Homo sapiens, UniProt Q9GZV3).
T6 sequence (Q9GZV3 whole entry): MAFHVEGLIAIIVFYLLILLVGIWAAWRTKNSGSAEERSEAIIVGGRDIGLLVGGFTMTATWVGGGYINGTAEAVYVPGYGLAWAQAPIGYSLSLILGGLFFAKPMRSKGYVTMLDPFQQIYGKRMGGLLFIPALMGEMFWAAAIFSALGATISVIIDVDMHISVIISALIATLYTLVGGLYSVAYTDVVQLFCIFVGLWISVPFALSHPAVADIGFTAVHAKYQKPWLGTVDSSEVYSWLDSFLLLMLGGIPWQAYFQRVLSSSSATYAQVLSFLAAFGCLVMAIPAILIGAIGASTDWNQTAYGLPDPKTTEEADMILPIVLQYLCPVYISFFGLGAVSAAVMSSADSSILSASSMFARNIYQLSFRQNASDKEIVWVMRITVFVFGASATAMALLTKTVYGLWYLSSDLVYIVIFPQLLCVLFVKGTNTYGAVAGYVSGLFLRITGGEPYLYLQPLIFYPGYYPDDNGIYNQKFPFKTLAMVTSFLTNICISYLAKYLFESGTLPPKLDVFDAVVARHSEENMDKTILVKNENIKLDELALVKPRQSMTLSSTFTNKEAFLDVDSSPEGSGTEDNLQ
As to the kind of experiment: CHT activators, dose response, cell-based, 10-point CRC, membrane potential dye (AID 602376). It is filed as functional.

Experiment [15] deals with Melanin-concentrating hormone receptor 1 (Homo sapiens, UniProt Q99705). In words: Late-stage fluorescence-based counterscreen for antagonists of the G-protein coupled receptor 7 (GPR7): cell-based dose response assay to identify antagonists of the melanin-concentrating hormone receptor 1 (MCHR1) Set 6. It is filed as functional.
Sequence of Melanin-concentrating hormone receptor 1 (Q99705 whole entry): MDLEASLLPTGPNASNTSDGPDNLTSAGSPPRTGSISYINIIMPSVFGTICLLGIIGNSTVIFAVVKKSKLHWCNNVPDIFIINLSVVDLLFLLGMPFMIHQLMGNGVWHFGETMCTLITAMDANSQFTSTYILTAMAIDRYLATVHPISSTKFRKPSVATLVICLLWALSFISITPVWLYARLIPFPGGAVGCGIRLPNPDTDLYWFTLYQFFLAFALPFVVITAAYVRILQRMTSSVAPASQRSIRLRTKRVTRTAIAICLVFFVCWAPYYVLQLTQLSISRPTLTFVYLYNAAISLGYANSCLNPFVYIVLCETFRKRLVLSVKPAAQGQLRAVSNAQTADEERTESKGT

Sequence of Phospholipase D2 (O14939 whole entry): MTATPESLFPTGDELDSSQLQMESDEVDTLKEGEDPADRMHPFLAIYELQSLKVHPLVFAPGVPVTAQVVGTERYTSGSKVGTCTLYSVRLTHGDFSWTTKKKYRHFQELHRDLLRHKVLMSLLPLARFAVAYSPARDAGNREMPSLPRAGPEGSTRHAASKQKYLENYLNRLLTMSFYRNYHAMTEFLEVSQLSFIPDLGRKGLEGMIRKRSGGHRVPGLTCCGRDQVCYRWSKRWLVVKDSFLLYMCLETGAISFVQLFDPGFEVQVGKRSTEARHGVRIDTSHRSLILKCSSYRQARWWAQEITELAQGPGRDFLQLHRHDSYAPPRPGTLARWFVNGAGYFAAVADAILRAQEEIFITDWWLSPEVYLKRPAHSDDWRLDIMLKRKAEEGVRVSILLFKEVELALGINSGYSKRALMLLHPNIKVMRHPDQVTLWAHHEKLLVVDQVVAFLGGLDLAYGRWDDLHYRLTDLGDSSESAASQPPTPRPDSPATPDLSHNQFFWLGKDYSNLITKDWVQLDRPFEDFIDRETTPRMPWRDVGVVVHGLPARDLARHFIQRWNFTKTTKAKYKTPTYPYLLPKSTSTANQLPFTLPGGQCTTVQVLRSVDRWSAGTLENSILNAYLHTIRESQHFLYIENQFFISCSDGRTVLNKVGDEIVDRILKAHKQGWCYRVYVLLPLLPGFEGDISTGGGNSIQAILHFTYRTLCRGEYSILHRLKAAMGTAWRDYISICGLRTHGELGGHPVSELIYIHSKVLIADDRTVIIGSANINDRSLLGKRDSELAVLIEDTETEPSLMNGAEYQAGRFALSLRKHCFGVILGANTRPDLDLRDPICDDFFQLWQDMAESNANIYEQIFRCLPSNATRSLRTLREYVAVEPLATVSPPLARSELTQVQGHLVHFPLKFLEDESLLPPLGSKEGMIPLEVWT

Broadly, the IC50 is the concentration needed to halve the response being measured. In the case of `COc1cc(/C=C(/C#N)c2nc(-c3ccc(C)cc3)no2)ccc1OCc1cccc(C(F)(F)F)c1`, the IC50 in experiment [1], in experiment [2], in experiment [3] and in [4] was > 99 µM (inactive) in each case.

With `C[C@@H](CN1CCC(n2c(=O)[nH]c3ccccc32)CC1)NC(=O)C1C[C@H]1c1ccccc1` (stereo partly specified), the figures for the IC50 in experiment [5] and in [6] were 0.088 µM (active) and 14.5 µM (active), respectively.

With `CCOc1ccc2nc(N(Cc3cccnc3)C(=O)c3ccc(Cl)s3)sc2c1`, the IC50 in experiment [7], in experiment [8], in experiment [9] and in [10] was > 99 µM (inactive) each time.

Usually EC50 stands for the concentration giving half of the maximal effect. For `CCN(CC)S(=O)(=O)c1cnccc1N1CCN(c2cccc(Cl)c2)CC1`, the concentration giving a half-maximal response (EC50) is < 0.1 µM (active) in experiment [11], 0.268 µM (active) in experiment [12], > 60 µM (not active) in experiment [13] and 24.7 µM (active) in [14].

With `CCCCc1n(C)c2ccccc2[n+]1CC(=O)c1ccc(Cl)cc1`, in experiment [14], the 50% effective concentration (EC50) was 9.58 µM (active).

As to `Fc1ccc(-c2nc(/C=C/c3ccccc3)no2)cc1`, the IC50 is 11.7 µM (active) in experiment [1]; 11.1 µM (active) in experiment [2]; 32 µM (active) in [7]; 37 µM (active) in experiment [8]; 33 µM (active) in experiment [9]; 33.8 µM (active) in experiment [3]. In addition, the half-inhibitory concentration (IC50) in [4] is 11.7 µM (active); in experiment [10] it was 14 µM (active).

`C[C@@H](CN1CCC(n2c(=O)[nH]c3ccccc32)CC1)NC(=O)c1cc2ccccc2[nH]1`: the IC50 was 0.001 µM (active) in experiment [5] and 0.066 µM (active) in [6].

Take `COc1ccc(Oc2c(Cl)cnn(CC(=O)N3c4ccccc4CC3C)c2=O)cc1` (stereo unspecified): the IC50 in experiment [15] was 0.781 µM (active).
